Laboratory results as given in ChEMBL document CHEMBL6178010, “XPO1-Targeting Selective Inhibitors of Transcriptional Activation Suppress Graft-versus-Host Disease” (J Med Chem, 2025).
One block for each compound: values may come before it. Active and inactive are the calls of the source. No cut-off for these calls is given here.

Experiments:
Exportin-1 [1] = molecular target: T1, Exportin-1 (Homo sapiens, UniProt O14980); assay: Covalent binding affinity to XPO1 in human Jurkat cells at 4 to 1000 nM by In-gel fluorescence analysis; assay type: cell-based; conditions: dose 4-1000 nM
[2] = molecular target: Exportin-1 (Mus musculus) (UniProt Q6P5F9); assay: In vivo binding affinity to XPO1 in mouse liver at 1 to 9 mg/kg, ip qd administered for 5 days by Western blot analysis; assay type: functional, organism-based; conditions: dose 1-9 mg/kg, time 5.0 day
[3] = molecular target: Exportin-1 (Mus musculus) (UniProt Q6P5F9); assay: In vivo binding affinity to XPO1 in mouse kidney at 1 to 9 mg/kg, ip qd administered for 5 days by Western blot analysis; assay type: functional, organism-based; conditions: dose 1-9 mg/kg, time 5.0 day
[4] = molecular target: Exportin-1 (Mus musculus) (UniProt Q6P5F9); assay: In vivo binding affinity to XPO1 in mouse spleen at 1 to 9 mg/kg, ip qd administered for 5 days by Western blot analysis; assay type: functional, organism-based; conditions: dose 1-9 mg/kg, time 5.0 day
[5] = Metabolic stability in mouse liver microsome assessed as half life; assay type: ADME; conditions: liver microsomes
Mus musculus [6] = assay: Anti-inflammatory activity in irradiated BALB/c mouse transplanted with bone marrow/splenic T-cells from C57BL/6 mouse assessed as increase in CD3 positive CD4 positive T cells in host spleen at 1 to 10 mg/kg, ip administered for 7 days by flow cytometry analysis; assay type: functional, organism-based; conditions: dose 1-10 mg/kg, time 7.0 day
Mus musculus [7] = assay: Anti-inflammatory activity in irradiated BALB/c mouse transplanted with bone marrow/splenic T-cells from C57BL/6 mouse assessed as suppression of CD3 positive T-cell infiltration in host liver at 10 mg/kg, ip qd administered daily for 7 days by IHC analysis; assay type: functional, organism-based; conditions: time 7.0 day
Mus musculus [8] = assay: Anti-inflammatory activity in irradiated BALB/c mouse transplanted with bone marrow/splenic T-cells from C57BL/6 mouse assessed as active behaviour of animal at 1 to 10 mg/kg, ip administered for 7 days; assay type: functional, organism-based; conditions: dose 1-10 mg/kg, time 7.0 day
Exportin-1 [9] = molecular target: T1, Exportin-1; assay: Inhibition of XPO1 in PMA/ionomycin-activated human Jurkat cells expressing IL-2 promoter reporter gene assessed as suppression of IL-2 transcriptional activity incubated for 6 hrs by Bright-Glo Luciferase assay; assay type: cell-based
[10] = Drug exposure in mouse administered intraperitoneally; assay type: ADME; conditions: in vivo, ip
[11] = Toxicity in irradiated BALB/c mouse transplanted with bone marrow/splenic T-cells from C57BL/6 mouse assessed as drug tolerance at 3 mg/kg, ip administered daily for 21 days; assay type: organism-based; conditions: in vivo, 504 h, time 21 day
Exportin-1 [12] = molecular target: T1, Exportin-1; assay: Inhibition of selinexor-alkyne binding to XPO1 at Cys528 in human Jurkat cells up to 300 nM pretreated for 1 hr followed by addition of selinexor-alkyne measured after 1 hr by In-gel fluorescence analysis; assay type: cell-based; conditions: time 2.0 hrs
Mus musculus [13] = assay: Suppression of T-cell activation in irradiated BALB/c mouse transplanted with bone marrow/splenic T-cells from C57BL/6 mouse assessed as downregulation of IFNG in host spleen at 10 mg/kg, ip administered daily for 7 days by RT-qPCR analysis; assay type: functional, organism-based; conditions: time 7.0 day
Mus musculus [14] = assay: Anti-inflammatory activity in irradiated BALB/c mouse transplanted with bone marrow/splenic T-cells from C57BL/6 mouse assessed as decrease in CD3 positive CD8 positive T cells in host spleen at 1 to 10 mg/kg, ip administered for 7 days by flow cytometry analysis; assay type: functional, organism-based; conditions: dose 1-10 mg/kg, time 7.0 day
Mus musculus [15] = assay: Anti-inflammatory activity in irradiated BALB/c mouse transplanted with bone marrow/splenic T-cells from C57BL/6 mouse assessed as suppression of CCL3 mRNA level in host spleen administered as ip dose for 7 days by RT-qPCR analysis; assay type: functional, organism-based; conditions: dose 10-100 mg/kg, time 7.0 day
Mus musculus [16] = assay: Anti-inflammatory activity in irradiated BALB/c mouse transplanted with bone marrow/splenic T-cells from C57BL/6 mouse assessed as suppression of TNF mRNA level in host spleen administered as ip dose for 7 days by RT-qPCR analysis; assay type: functional, organism-based; conditions: dose 10-100 mg/kg, time 7.0 day
Jurkat [17] = assay: Cytotoxicity against human Jurkat cells expressing XPO1 C528S mutant assessed as suppression of cell viability up to 1000 nM incubated for 24 hrs by CellTiter-Glo assay; assay type: functional, cell-based
[18] = Metabolic stability in mouse liver microsome assessed as intrinsic clearance; assay type: ADME; conditions: liver microsomes, read-out: CLH
Mus musculus [19] = assay: Anti-inflammatory activity in irradiated BALB/c mouse transplanted with bone marrow/splenic T-cells from C57BL/6 mouse assessed as suppression of IFNG mRNA level in host spleen administered as ip dose for 7 days by RT-qPCR analysis; assay type: functional, organism-based; conditions: dose 10-100 mg/kg, time 7.0 day
[20] = Toxicity in mouse assessed as neutropenia at 10 mg/kg, ip administered daily for 5 days by CBC analysis; assay type: organism-based; conditions: in vivo, 120 h, time 5 day
Jurkat [21] = assay: Cytotoxicity against human Jurkat cells assessed as suppression of cell viability incubated for 24 hrs by CellTiter-Glo assay; assay type: functional, cell-based
Mus musculus [22] = assay: Anti-inflammatory activity in irradiated BALB/c mouse transplanted with bone marrow/splenic T-cells from C57BL/6 mouse assessed as improvement in animal survival at 3 mg/kg, ip administered daily for 21 days; assay type: functional, organism-based; conditions: time 21.0 day
Mus musculus [23] = assay: Anti-inflammatory activity in irradiated BALB/c mouse transplanted with bone marrow/splenic T-cells from C57BL/6 mouse assessed as suppression of CSF2 mRNA level in host spleen administered as ip dose for 7 days by RT-qPCR analysis; assay type: functional, organism-based; conditions: dose 10-100 mg/kg, time 7.0 day
Jurkat [24] = assay: Downregulation of IL-2 mRNA level in PMA/ionomycin-activated human Jurkat cells expressing XPO1 C528S mutant at 200 nM incubated for 6 hrs by RT-qPCR analysis; assay type: functional, cell-based
Mus musculus [25] = assay: Anti-inflammatory activity in irradiated BALB/c mouse transplanted with bone marrow/splenic T-cells from C57BL/6 mouse assessed as healthy appearance of animal at 1 to 10 mg/kg, ip administered for 7 days; assay type: functional, organism-based; conditions: dose 1-10 mg/kg, time 7.0 day
[26] = Toxicity in mouse assessed as leukopenia at 10 mg/kg, ip administered daily for 5 days by CBC analysis; assay type: organism-based; conditions: in vivo, 120 h, time 5 day
Mus musculus [27] = assay: Suppression of T-cell activation in irradiated BALB/c mouse transplanted with bone marrow/splenic T-cells from C57BL/6 mouse assessed as downregulation of CSF2 in host spleen at 10 mg/kg, ip administered daily for 7 days by RT-qPCR analysis; assay type: functional, organism-based; conditions: time 7.0 day
XPO1 = assay: Selectivity ratio of EC50 for cytotoxicity against human Jurkat cells assessed as suppression of cell viability to EC50 for inhibition of XPO1 in PMA/ionomycin-activated human Jurkat cells expressing IL-2 promoter reporter gene assessed as suppression of IL-2 transcriptional activity; assay type: toxicity, cell-based; conditions: read-out: Ratio EC50
Jurkat [28] = assay: Downregulation of IL-2 mRNA level in PMA/ionomycin-activated human Jurkat cells expressing XPO1 C528S mutant at 100 nM incubated for 6 hrs by RT-qPCR analysis; assay type: functional, cell-based
Exportin-1 [29] = molecular target: T1, Exportin-1; assay: Inhibition of selinexor-alkyne binding to XPO1 at Cys528 in human Jurkat cells up to 10 nM pretreated for 1 hr followed by addition of selinexor-alkyne measured after 1 hr by In-gel fluorescence analysis; assay type: cell-based; conditions: time 2.0 hrs
Jurkat [30] = assay: Cytotoxicity against human Jurkat cells expressing XPO1 C528S mutant assessed as suppression of cell viability up to 10000 nM incubated for 24 hrs by CellTiter-Glo assay; assay type: functional, cell-based
Jurkat [31] = assay: Cytotoxicity against human Jurkat cells expressing XPO1 C528S mutant assessed as suppression of cell viability up to 100 nM incubated for 24 hrs by CellTiter-Glo assay; assay type: functional, cell-based
Jurkat [32] = assay: Downregulation of IL-2 mRNA level in PMA/ionomycin-activated human Jurkat cells expressing XPO1 C528S mutant at 10 nM incubated for 6 hrs by RT-qPCR analysis; assay type: functional, cell-based
[33] = molecular target: Exportin-1 (Mus musculus) (UniProt Q6P5F9); assay: In vivo binding affinity to XPO1 in mouse liver at 10 mg/kg, ip qd administered for 5 days by Western blot analysis; assay type: functional, organism-based; conditions: time 5.0 day
[34] = molecular target: Exportin-1 (Mus musculus) (UniProt Q6P5F9); assay: In vivo binding affinity to XPO1 in mouse spleen at 10 mg/kg, ip qd administered for 5 days by Western blot analysis; assay type: functional, organism-based; conditions: time 5.0 day
Exportin-1 [35] = molecular target: T1, Exportin-1; assay: Covalent binding affinity to XPO1 in human Jurkat cells at 0.6 to 123 nM by In-gel fluorescence analysis; assay type: cell-based; conditions: dose 0.6-123 nM
[36] = molecular target: Exportin-1 (Mus musculus) (UniProt Q6P5F9); assay: In vivo binding affinity to XPO1 in mouse kidney at 10 mg/kg, ip qd administered for 5 days by Western blot analysis; assay type: functional, organism-based; conditions: time 5.0 day
Mus musculus [37] = assay: Anti-inflammatory activity in irradiated BALB/c mouse transplanted with bone marrow/splenic T-cells from C57BL/6 mouse assessed as reduction in animal lethality at 10 mg/kg, ip administered daily measured for 8 days; assay type: functional, organism-based; conditions: time 8.0 day

T1 sequence (O14980 whole entry): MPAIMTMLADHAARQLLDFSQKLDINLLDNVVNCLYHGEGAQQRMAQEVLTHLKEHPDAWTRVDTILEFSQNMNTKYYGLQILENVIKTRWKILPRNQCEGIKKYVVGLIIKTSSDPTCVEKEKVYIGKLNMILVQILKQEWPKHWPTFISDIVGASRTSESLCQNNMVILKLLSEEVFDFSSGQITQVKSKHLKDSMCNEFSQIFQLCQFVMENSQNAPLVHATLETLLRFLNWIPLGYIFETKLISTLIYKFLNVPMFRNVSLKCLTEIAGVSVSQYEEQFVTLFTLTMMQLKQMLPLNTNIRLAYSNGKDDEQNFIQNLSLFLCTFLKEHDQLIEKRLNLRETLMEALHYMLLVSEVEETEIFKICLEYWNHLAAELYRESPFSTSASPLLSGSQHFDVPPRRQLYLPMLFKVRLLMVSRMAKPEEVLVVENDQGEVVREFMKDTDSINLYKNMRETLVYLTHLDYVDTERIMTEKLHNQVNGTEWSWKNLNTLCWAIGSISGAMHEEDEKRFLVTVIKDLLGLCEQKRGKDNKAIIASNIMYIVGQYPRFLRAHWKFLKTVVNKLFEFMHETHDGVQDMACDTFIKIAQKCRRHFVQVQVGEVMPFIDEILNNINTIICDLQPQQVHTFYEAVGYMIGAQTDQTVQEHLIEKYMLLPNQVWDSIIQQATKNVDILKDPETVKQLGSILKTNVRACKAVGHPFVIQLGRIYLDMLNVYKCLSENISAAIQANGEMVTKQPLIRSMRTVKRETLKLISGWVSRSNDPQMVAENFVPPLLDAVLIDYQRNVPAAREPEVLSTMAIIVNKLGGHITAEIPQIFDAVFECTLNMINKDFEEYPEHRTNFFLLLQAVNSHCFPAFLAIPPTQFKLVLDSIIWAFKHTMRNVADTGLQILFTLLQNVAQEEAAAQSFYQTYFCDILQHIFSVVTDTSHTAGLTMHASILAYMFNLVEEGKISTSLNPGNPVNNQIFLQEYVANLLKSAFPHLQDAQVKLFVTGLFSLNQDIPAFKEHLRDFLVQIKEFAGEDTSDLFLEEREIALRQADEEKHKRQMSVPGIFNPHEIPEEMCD
Exportin-1 (Mus musculus), sequence (Q6P5F9 whole entry): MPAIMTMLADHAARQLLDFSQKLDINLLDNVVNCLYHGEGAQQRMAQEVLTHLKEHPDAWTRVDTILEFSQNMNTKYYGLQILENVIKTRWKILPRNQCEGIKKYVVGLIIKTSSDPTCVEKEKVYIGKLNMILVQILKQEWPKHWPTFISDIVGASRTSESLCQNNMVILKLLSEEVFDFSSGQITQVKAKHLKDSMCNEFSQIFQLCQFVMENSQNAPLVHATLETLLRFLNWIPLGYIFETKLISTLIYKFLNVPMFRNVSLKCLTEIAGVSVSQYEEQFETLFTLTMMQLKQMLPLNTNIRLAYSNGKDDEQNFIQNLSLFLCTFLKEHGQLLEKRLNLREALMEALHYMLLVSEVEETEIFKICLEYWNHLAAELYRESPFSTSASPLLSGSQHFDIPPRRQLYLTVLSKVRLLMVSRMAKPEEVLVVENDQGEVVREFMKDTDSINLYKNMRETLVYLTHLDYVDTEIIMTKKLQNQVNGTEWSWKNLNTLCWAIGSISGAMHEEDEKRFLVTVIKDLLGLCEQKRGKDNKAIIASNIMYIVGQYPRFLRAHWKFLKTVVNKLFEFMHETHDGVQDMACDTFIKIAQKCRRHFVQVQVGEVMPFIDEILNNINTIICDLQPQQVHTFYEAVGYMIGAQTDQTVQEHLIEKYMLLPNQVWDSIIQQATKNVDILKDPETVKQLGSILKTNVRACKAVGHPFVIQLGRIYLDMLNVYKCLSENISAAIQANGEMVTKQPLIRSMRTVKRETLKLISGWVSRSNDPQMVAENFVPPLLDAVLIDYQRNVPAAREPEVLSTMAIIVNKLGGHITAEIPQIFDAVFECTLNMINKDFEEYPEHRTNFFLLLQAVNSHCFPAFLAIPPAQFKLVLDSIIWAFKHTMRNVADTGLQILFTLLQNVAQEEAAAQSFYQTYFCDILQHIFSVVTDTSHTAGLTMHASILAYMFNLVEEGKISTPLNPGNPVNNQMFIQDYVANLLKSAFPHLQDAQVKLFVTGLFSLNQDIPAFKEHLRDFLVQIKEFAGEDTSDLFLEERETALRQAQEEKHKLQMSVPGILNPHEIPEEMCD

Structure (SMILES): CC1=CC(=O)N(Nc2ccc(C(F)(F)F)c(N(C)C)n2)C1=O
EC50 (Exportin-1 [9]): 8.3 nM | Activity (Jurkat [28]): inactive | inhibition (Exportin-1 [29]): Active | EC50 (Jurkat [21]): 696 nM | Activity (Jurkat [30]): Active | selectivity ratio (XPO1): 83.9

Structure (SMILES): CC1=CC(=O)N(Nc2ccc(C(F)(F)F)c(N3CC4CC4C3)n2)C1=O (centres undefined)
half-life [5]: < 10 min | EC50 (Exportin-1 [9]): 1 nM | Activity (Jurkat [31]): Active | inhibition (Exportin-1 [29]): Active | Activity (Jurkat [32]): inactive | microsomal CLint [18]: > 139 µL/min/mg | EC50 (Jurkat [21]): 30.4 nM | selectivity ratio (XPO1): 30.4

Structure (SMILES): O=C(/C=C\n1cnc(-c2cc(C(F)(F)F)cc(C(F)(F)F)c2)n1)NNc1cnccn1 [SELINEXOR]
Activity (Mus musculus [37]): inactive | Activity [20]: Toxic | Activity [26]: Toxic

The next lines start with results.

Activity (Exportin-1 [1]): Active | Activity [2]: Active | Activity [3]: Active | Activity [4]: Active
Structure (SMILES): C#Cc1cc2c(NN3C(=O)C=C(C)C3=O)nc(C(F)(F)F)nn2c1

half-life [5]: > 60 min | EC50 (Exportin-1 [9]): 31 nM | Drug uptake [10]: Active | inhibition (Exportin-1 [12]): Active | microsomal CLint [18]: < 23 µL/min/mg
Structure (SMILES): CC1=CC(=O)N(Nc2nc(C(F)(F)F)nn3cccc23)C1=O
Activity (Mus musculus [6]): Active | Activity (Mus musculus [7]): Active | Activity (Mus musculus [8]): Active | Activity [11]: Non-toxic | Activity (Mus musculus [13]): Active; Compound Showed Stronger Effect Than Sp100030 | Activity (Mus musculus [14]): Active | Activity (Mus musculus [15]): Dose-dependent-effect | Activity (Mus musculus [16]): Dose-dependent-effect | Activity (Jurkat [17]): inactive | Activity (Mus musculus [19]): Dose-dependent-effect | Activity [20]: Non-toxic | EC50 (Jurkat [21]): 270 nM | Activity (Mus musculus [22]): Active | Activity (Mus musculus [23]): Dose-dependent-effect | Activity (Jurkat [24]): inactive | Activity (Mus musculus [25]): Active | Activity [26]: Non-toxic | Activity (Mus musculus [27]): Active; Compound Showed Stronger Effect Than Sp100030 | selectivity ratio (XPO1): 8.7

Activity [33]: Active | Activity [34]: Active | Activity (Exportin-1 [35]): Active | Activity [36]: Active
Structure (SMILES): C#Cc1cc(NN2C(=O)C=C(C)C2=O)cc(C(F)(F)F)c1
